Assays:
[1] = tested on: HepaRG cells infected with HBV/HDV containing serum; test: Number of HBcAg-positive HepaRG cells on day 6 post infection by HBcAg-specific IF, Myrcludex B with or without entecavir; type: cell-based; conditions: immunochemistry
HBV = conditions: after two years of treatment; cited from earlier work

Structure (SMILES)	effect of entecavir on the inhibition of HBV receptor by Myrcludex B in vitro [1]	HBsAg seroconversion (HBV)
C=C1[C@H](CO)[C@@H](O)C[C@@H]1n1cnc2c(=O)[nH]c(N)nc21 [entecavir]	did not improve	–
C[C@H](Cn1cnc2c(N)ncnc21)OCP(=O)(O)O [tenofovir]	–	4 % of patients
